Test results from article PMC4641600, “Novel Activities of Select NSAID R-Enantiomers against Rac1 and Cdc42 GTPases” (PLoS ONE, 2015).
Structures can show the parent of a compound that is named as a salt.

Legend:
[1] = target: Rac1 wt (Homo sapiens, UniProt P63000); assay: Dose response, BODIPY-GTP binding; conditions: 10 nM to 100 µM
[2] = target: Rac1Q61L activating mutant (Homo sapiens, UniProt P63000, Q61L); assay: Dose response, BODIPY-GTP binding; conditions: 10 nM to 100 µM; read-out: Rac1 (act) EC50
[3] = target: Cdc42 wt (Homo sapiens, UniProt P60953); assay: Dose response, BODIPY-GTP binding; conditions: 10 nM to 100 µM
Chain of Cdc42 wt (P60953 whole entry): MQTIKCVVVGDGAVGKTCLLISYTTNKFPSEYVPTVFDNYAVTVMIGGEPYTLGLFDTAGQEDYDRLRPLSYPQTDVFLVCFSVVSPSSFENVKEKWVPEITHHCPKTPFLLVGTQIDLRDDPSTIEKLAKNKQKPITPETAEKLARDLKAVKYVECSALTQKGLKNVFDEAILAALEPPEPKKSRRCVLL

[4] = target: Cdc42Q61L activating mutant (Homo sapiens, UniProt P60953, Q61L); assay: Dose response, BODIPY-GTP binding; conditions: 10 nM to 100 µM; read-out: Cdc42 (act) EC50
Chain of Cdc42Q61L activating mutant (P60953 whole entry Q61L): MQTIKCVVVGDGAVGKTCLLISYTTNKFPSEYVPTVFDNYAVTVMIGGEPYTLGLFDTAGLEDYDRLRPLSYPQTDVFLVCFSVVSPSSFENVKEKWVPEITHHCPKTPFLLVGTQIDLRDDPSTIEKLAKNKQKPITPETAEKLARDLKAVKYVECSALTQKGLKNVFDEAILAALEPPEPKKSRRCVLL

[5] = target: H-Ras wt (Homo sapiens, UniProt P01112); assay: Dose response, BODIPY-GTP binding; conditions: 10 nM to 100 µM
Description: (§1) For multiplex analyses of small GTPases, 4 μm diameter glutathione-beads (GSH-beads) distinguished by seven different intensities of red fluorescence were used according to our previously described protocols. The GST-GTPases included the following eight Ras-related small GTPases: Rab2 wt, Rab7 wt, Cdc42 wt, Cdc42Q61L activating mutant, H-Ras wt, H-RasG12V, Rac1 wt and Rac1Q61L activating mutant. Briefly, Prestwick Chemical Library® compounds were tested at 10 μM compound and 1% DMSO final concentrations. After a 10 min pre-incubation with the compound BODIPY- FL-GTP (100 nM final) was added to each well and bead associated fluorescence was measured. Sample analysis was conducted with a HyperCyt® high throughput flow cytometry platform. Flow cytometric light scatter at 488 nm and fluorescence emission at 530 +/− 20 nm (FL1) and 665 +/− 10 nm (FL8) were collected on a Cyan ADP flow cytometer (Beckman Coulter, Fullerton, CA). IDLQuery software was used to determine the compound activity in each well. Gating based on forward scatter (FS) and side scatter (SS) parameters was used to identify singlet bead populations. Gating based on FL8 emission distinguishes the beads coated with different proteins, and the median FL1 fluorescence per bead population were calculated. A compound was considered a “potential active” if the change in BODIPY-FL-GTP binding differed greater than 20% from that measured in DMSO treated controls.
(§2) Test compounds identified for follow-up after the primary screen were tested at dilutions ranging from 10 nM to 100 μM final concentration against individual GTPases in multiplex and single-plex assays. Compounds tested in dose response assays were serially diluted 1:3 a total of eight times from a starting concentration of 10 mM giving a 9-point dilution series in DMSO.
(§3) bConfirmatory screens entailed dose response assays conducted in a multiplex format with eight GTPases tested as for primary screen. BODIPY-GTP-binding activity was
(§4) measured in the presence of 10 nM to 100 µM of each of 11 test compounds (4 primary screen hits and 7 additional NSAIDs considered to have chemical similarity to GTPase
(§5) active compounds). GST-GFP coated beads served as a control to detect non-specific dissociation or denaturation caused by compound addition–none of the tested NSAIDs had
(§6) any effect on bead-GST-protein binding. EC50 values were determined using Prism to determine dose response fits as shown in Figure 1 of main text; fits have R2 > 0.9. Active
(§7) compounds based on same definition used as in primary screena. […]

[6] = target: H-RasG12V (Homo sapiens, UniProt P01112, G12V); assay: Dose response, BODIPY-GTP binding; conditions: 10 nM to 100 µM
Description: as §1, §2, §3, §4, §5, §6, §7
(§8) ‡A well-characterized selective Cdc42 inhibitor served as a positive control.

[7] = target: Rab2 (Homo sapiens, UniProt P61019); assay: Dose response, BODIPY-GTP binding; conditions: 10 nM to 100 µM
Chain of Rab2 (P61019 whole entry, species assumed): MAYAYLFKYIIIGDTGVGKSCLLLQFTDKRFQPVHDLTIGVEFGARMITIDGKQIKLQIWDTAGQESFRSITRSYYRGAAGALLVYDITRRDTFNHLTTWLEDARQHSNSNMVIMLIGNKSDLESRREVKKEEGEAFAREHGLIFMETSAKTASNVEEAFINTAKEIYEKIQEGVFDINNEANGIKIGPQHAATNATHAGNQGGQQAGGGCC

[8] = target: Rab7 (Homo sapiens, UniProt P51149); assay: Dose response, BODIPY-GTP binding; conditions: 10 nM to 100 µM
Chain of Rab7 (P51149 whole entry, species assumed): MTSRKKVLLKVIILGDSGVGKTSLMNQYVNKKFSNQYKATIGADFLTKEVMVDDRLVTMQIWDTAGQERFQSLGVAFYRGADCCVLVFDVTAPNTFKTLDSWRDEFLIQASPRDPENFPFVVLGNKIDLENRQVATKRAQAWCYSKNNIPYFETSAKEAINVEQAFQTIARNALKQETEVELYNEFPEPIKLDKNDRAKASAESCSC

[9] = system: Ras-related GTPases; assay: Confirmatory dose response assays on eight Ras-related GTPases; format: binding; conditions: for activity against the GTPases in confirmatory dose response assays (words): 10 nM to 100 µM
Description: as §1, §2, §3, §4, §5, §6, §7, §8

[10] = system: Rab2 wt, Rab7 wt, Cdc42 wt, Cdc42Q61L, H-Ras wt, H-RasG12V, Rac1 wt and Rac1Q61L; assay: Primary multiplex screen, BODIPY-FL-GTP binding on bead-bound GTPases (flow cytometry); conditions: for Primary Screen Hit: single dose 10 µM, change in BODIPY-GTP binding on any one GTPase; for primary screen outcome: 10 μM compound
[11] = system: Rac1 membrane localization; assay: Rac1 immunolocalization, OvCa433 cells; format: cell-based, human; conditions: for Rac1 membrane localization: 300 μM; for Rac PM Localiz.: immunofluorescence quantified using ImageJ
[12] = system: Tiam1 membrane localization; assay: Tiam1 immunolocalization, OvCa433 cells; format: cell-based, human
Description: OvCa433 were plated on coverslips, treated with 300 μM NSAIDs for 1 h, fixed with 3% paraformaldehyde and immunostained for Rac1 or Tiam1. Actin was visualized with rhodamine phalloidin from Invitrogen (F432). Cells were imaged on a Zeiss LSM510 using a 63x objective and quantified using Image J.
Rac1 and Tiam1 antibodies were confirmed in our hands to recognize single protein species of the predicted molecular weight by immunoblot.

[13] = system: Rac1 and Tiam1 protein levels; assay: Immunoblot of protein levels; format: cell-based, human
Description: Cells were stimulated with EGF at a final concentration of 1 nM for 10 min. Cells were lysed in a RIPA buffer consisting of 50 mM Tris pH 7.4, 1% NP-40, 0.25% sodium deoxycholate, 150 mM NaCl, 1 mM EDTA, 1 mM PMSF, 1 mM sodium vanadate, 10 mM sodium fluoride, 1 μg/mL each of pepstatin, aprotinin and leupeptin, 10 mM sodium pyrophosphate and 10 mM beta-glycerophosphate.
N = 3. See also Figure D in S1 File for time dependent loss of Rac1 membrane localization. N = 3 (B) Quantification of image intensity using Image J of 3 representative confocal images as shown in panel (A) containing 20–30 cells/field normalized to actin and untreated controls. (C) Western blot analyses of lysates from cells treated with 300 μM compound as indicated for 24 h as compared to untreated controls. […] Blots were probed for Tiam1 (200 kDa), GAPDH (37 kDa), Rac1 (20 kDa), as a loading control. (D) Quantification of image intensity using Image J. Each marker was normalized to GAPDH and untreated controls. N = 3.

[14] = target: T1, Rac1 (Homo sapiens, UniProt P63000); assay: G-trap flow cytometric effector binding assay, HeLa cells; format: cell-based; conditions: ketorolac enantiomers
T1 construct: endogenous in cells; host or cells: HeLa

[15] = target: T2, Cdc42 (Homo sapiens, UniProt P60953); assay: as above; format: cell-based; conditions: ketorolac enantiomers, EGF stimulation, read-out: EC50 against Cdc42
T2 construct: endogenous in cells; host or cells: HeLa
T2 sequence (P60953 whole entry): as the sequence (P60953 whole entry) above

[16] = target: T3, Rac1 (Mus musculus, UniProt P63001); assay: GLISA, Swiss 3T3 cells; format: cell-based; conditions: at 50 μM
T3 construct: endogenous in cells; host or cells: Swiss 3T3

[17] = target: T4, Cdc42 (Mus musculus, UniProt P60766); assay: GLISA, Swiss 3T3 cells; format: cell-based; conditions: at 10 μM
T4 construct: endogenous in cells; host or cells: Swiss 3T3
T4 sequence (P60766 whole entry): as the sequence (P60953 whole entry) above

[18] = target: T5, human COX-1 (Homo sapiens, UniProt P23219); assay: Cyclooxygenase assay (CEREP), PGE2 formation; format: biochemical
T5 construct: purchased CEREP Laboratories (contract assay); host or cells: Sf-9
T5 sequence (P23219 24-599): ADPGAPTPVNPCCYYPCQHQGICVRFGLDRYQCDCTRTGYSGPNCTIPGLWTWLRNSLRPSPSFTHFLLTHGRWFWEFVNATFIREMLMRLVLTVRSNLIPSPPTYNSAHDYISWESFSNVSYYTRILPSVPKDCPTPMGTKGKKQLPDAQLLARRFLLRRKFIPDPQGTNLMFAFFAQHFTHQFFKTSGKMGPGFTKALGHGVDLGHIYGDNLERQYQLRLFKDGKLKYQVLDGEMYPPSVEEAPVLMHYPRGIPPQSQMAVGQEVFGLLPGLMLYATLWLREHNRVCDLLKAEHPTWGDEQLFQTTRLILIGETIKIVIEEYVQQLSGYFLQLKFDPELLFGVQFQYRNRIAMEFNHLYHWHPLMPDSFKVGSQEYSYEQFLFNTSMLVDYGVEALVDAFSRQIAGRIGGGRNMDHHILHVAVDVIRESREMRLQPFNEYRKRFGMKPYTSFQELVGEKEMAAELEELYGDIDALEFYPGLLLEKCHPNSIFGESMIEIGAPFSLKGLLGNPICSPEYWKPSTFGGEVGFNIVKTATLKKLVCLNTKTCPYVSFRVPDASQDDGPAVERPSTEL

[19] = target: T6, human COX-2 (Homo sapiens, UniProt P35354); assay: Cyclooxygenase assay (CEREP), PGE2 formation; format: biochemical; conditions: recombinant enzyme, 4 μM arachidonic acid
T6 construct: purchased CEREP Laboratories (contract assay); host or cells: Sf-9
T6 sequence (P35354 18-604): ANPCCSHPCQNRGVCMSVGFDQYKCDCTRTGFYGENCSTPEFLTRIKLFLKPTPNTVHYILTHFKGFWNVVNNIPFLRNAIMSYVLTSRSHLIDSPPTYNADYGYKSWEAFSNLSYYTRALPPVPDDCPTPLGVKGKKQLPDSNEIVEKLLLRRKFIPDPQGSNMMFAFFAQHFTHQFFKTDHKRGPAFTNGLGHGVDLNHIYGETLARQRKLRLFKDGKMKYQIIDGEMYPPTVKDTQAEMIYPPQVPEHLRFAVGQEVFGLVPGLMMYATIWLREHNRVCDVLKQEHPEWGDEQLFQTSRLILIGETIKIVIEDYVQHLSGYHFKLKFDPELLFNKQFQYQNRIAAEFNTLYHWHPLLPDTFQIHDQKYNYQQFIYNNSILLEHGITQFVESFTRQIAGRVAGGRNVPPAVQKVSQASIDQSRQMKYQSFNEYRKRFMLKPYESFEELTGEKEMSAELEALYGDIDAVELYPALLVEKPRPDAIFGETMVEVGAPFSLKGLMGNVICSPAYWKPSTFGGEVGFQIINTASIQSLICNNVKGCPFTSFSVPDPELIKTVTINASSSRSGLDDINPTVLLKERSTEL

[20] = system: migration Rac1/Cdc42 dependent; assay: Migration IC50 (Table F); format: cell-based; conditions: ketorolac, calculated by GraphPad Prism5; read-out: IC50 migration Rac1/Cdc42 dependent (est)
[21] = assays performed with 0.1% DMSO

SMILES: CSc1ccc(/C=C2/C(C)=C(CC(=O)O)c3cc(F)ccc32)cc1 [Sulindac sulfide]
- EC50 [1]: 54 µM
- EC50 [2]: 53 µM
- EC50 [3]: > 100 µM
- EC50 [4]: 48.6 µM
- H-Ras wt EC50 [5]: inactive
- H-Ras (act) EC50 [6]: inactive
- Rab2 EC50 [7]: inactive
- Rab7 EC50 [8]: inactive
- activity against the GTPases in confirmatory dose response assays (words) [9]: varying activity levels

SMILES: CN1C(C(=O)Nc2ccccn2)=C(O)c2ccccc2S1(=O)=O [Piroxicam]
- Primary Screen Hit [10]: Inactive

SMILES: COc1ccc2cc([C@H](C)C(=O)O)ccc2c1 [S-naproxen]
- H-Ras wt EC50 [5]: inactive
- H-Ras (act) EC50 [6]: inactive
- Rab2 EC50 [7]: inactive
- Rab7 EC50 [8]: inactive
- times less active than the R-enantiomer [9]: 10–20 times
- activity against the GTPases in confirmatory dose response assays (words) [9]: varying activity levels
- Rac1 membrane localization [11]: no effect
- Rac PM Localiz. [11]: 87%
- Tiam1 membrane localization ([12]; 300 μM): only slightly reduced
- Tiam1 GEF PM localiz. ([12]; immunofluorescence quantified using ImageJ): 65%
- total Rac1 or Tiam1 protein levels ([13]; 300 μM, 24 h, immunoblot): did not alter
- Rac protein expression ([13]; immunoblot analysis): No change

SMILES: O=C(O)Cc1ccccc1Nc1c(Cl)cccc1Cl [Diclofenac sodium]
- Primary Screen Hit [10]: Inactive

SMILES: O=C(c1ccccc1)c1ccc2n1CC[C@@H]2C(=O)O [S-ketorolac]
- efficacy against Rac1 [14]: < 50%
- EC50 [15]: > 10 µM
- inhibition of Rac1 [16]: non-inhibitory
- inhibition of Cdc42 [17]: non-inhibitory
- eudismic ratio (EC50/EC50) ([18]; for cyclooxygenases, S-enantiomer relative to R-enantiomer): 100
- IC50 ([18]; recombinant enzyme, 4 μM arachidonic acid): < 0.01 µM
- IC50 [19]: 0.085 µM
- IC50 [20]: > 100 µM

SMILES: CC(=O)Oc1ccccc1C(=O)O [Acetylsalicylic acid]
- Rac1 membrane localization [11]: did not alter

SMILES: CC(C(=O)O)c1cccc(Oc2ccccc2)c1 (centres unmarked) [Fenoprofen]
- primary screen outcome [10]: positive
- Primary Screen Hit [10]: Active
- Rac1 wt EC50 [1]: Inactive
- Rac1 membrane localization [11]: did not alter

SMILES: CC1=C(CC(=O)O)c2cc(F)ccc2/C1=C\c1ccc([S+](C)[O-])cc1 (centres unmarked) [Sulindac]
- Primary Screen Hit [10]: Inactive

SMILES: CC(C(=O)O)c1ccc(C(=O)c2cccs2)cc1 (centres unmarked) [Suprofen]
- Primary Screen Hit [10]: Inactive

SMILES: CC(C(=O)O)c1ccc(C(=O)c2ccccc2)s1 (centres unmarked) [Tiaprofenic acid]
- Primary Screen Hit [10]: Inactive

SMILES: Cc1ccc(C(=O)c2ccc(CC(=O)O)n2C)cc1 [Tolmetin sodium salt dihydrate]
- Primary Screen Hit [10]: Inactive

SMILES: CC(=O)Nc1ccc(O)cc1 [Acetaminophen]
- Primary Screen Hit [10]: Inactive

SMILES: CC(=O)Oc1ccccc1C(=O)Oc1ccccc1C(=O)O [Acetylsalicylsalicylic acid]
- Primary Screen Hit [10]: Inactive

SMILES: O=C(O)c1cc(-c2ccc(F)cc2F)ccc1O [Diflunisal]
- Primary Screen Hit [10]: Inactive

SMILES: Cc1ccc(-c2cc(C(F)(F)F)nn2-c2ccc(S(N)(=O)=O)cc2)cc1 [Celecoxib]
- activity against the GTPases in confirmatory dose response assays (words) [9]: inactive

SMILES: CC(C)Cc1ccc(C(C)C(=O)O)cc1 (centres unmarked) [ibuprofen]
- Rac1 membrane localization [11]: did not alter

SMILES: Cc1c(Cl)cccc1Nc1ccccc1C(=O)O [Tolfenamic acid]
- Primary Screen Hit [10]: Inactive

SMILES: Cc1onc(-c2ccccc2)c1-c1ccc(S(N)(=O)=O)cc1 [Valdecoxib]
- activity against the GTPases in confirmatory dose response assays (words) [9]: inactive

SMILES: CC(C)Cc1ccc([C@H](C)C(=O)O)cc1 [S-(+)-Ibuprofen, (S)-(+)-Ibuprofen]
- primary screen outcome [10]: positive
- Primary Screen Hit [10]: Active
- Cdc42 wt EC50 [3]: inactive
- EC50 [4]: 6.41 µM
- H-Ras wt EC50 [5]: inactive
- H-Ras (act) EC50 [6]: inactive
- Rac PM Localiz. [11, 21]: 78%

SMILES: CC(C(=O)O)c1cccc(C(=O)c2ccccc2)c1 (centres unmarked) [Ketoprofen]
- Rac1 membrane localization [11]: did not alter
- Rac PM Localiz. [11, 21]: 45%
